Results taken from patent US20130136722A1, “Methods of Ex Vivo Expansion of Blood Progenitor Cells, and Generation of Composite Grafts” (The Board of Trustees of The University of Illinois, priority 2011, published 2013).

Legend:
Assay type in all cases: cell-based, human
[1] = tested on: cord blood-derived CD34+CD90+ cells; experiment: Ex vivo expansion culture of cord blood CD34+ cells with chromatin modifying agents, flow cytometry for CD34/CD90; settings: for cells co-expressing CD34+ and CD90+ / fold expansion of CD34+CD90+ cells / expansion of CD34+CD90+ cells (in words): 9 days of culture; for cells co-expressing CD34+ and CD90+: cytokines (SCF, Flt3-ligand, TPO, IL-3) plus CMA, FIG. 1A; for fold expansion of CD34+CD90+ cells: cytokines plus CMA; for fold expansion of CD34+CD90+ cells / expansion of CD34+CD90+ cells (in words): FIG. 1B; for CD34+CD90+ (%): mean ± SEM of three independent experiments
From the text: Freshly collected human CB was obtained from the New York Blood Center (New York, N.Y.) according to Institutional Review Board guidelines. Low density CB cells (<1.077 g/ml) were obtained by density centrifugation on Ficoll-Paque PLUS (GE Healthcare Bio-Sciences AB, Uppsala, Sweden), from which CD34^+ cells were immunomagnetically isolated by the MACS CD34 progenitor isolation kit (Miltenyi Biotech, Inc., Auburn, Calif.) as described in Araki et al., 2009, Exp Hematol. 37: 1084-1095). The purity of isolated CD34^+ cells routinely ranged from 90-99%.
CD34^+ cell expansion culture with or without CMA was carried out as described (Araki et al., 2009, Id.; Araki et al. 2006, Exp Hematol. 34: 140-149; Araki et al, 2007, Blood 109: 3570-3578.). All other HDAC inhibitors including 1 mM VPA (Sigma), TSA (5 ng/mL), NA (5 mM) or 5 μM of Suberoylanilide hydroxamic acid (SAHA; BioVision, Inc. Mountain View, Calif.) was added twice at 0 hr and after changing media at 48 hrs of culture. HDAC inhibitors were added only once (48 hr) when used in combination with a DNMT inhibitor as described (Araki et al., 2009, Id.; Araki et al., 2006, Id.; Himburg et al., 2010, Nat. Med. 16: 475-482).
Flow cytometric analysis was carried out as described (Araki et al., 2009, Id.; Araki et al. 2006, Id.; Araki et al, 2007, Id.). All antibodies were purchased from BD Bioscience (San Jose, Calif.). All analyses were paired with the corresponding matched isotype control and at least 10,000 live cells were acquired for each analysis (CellQuest software, Becton Dickinson).
In order to compare the effects of various chromatin modifying agents (CMAs) on the degree of expansion of cord blood-derived, primitive subpopulation of CD34^+ cells, valproic acid (VPA), trichostatin A (TSA), nicotinic acid (NA), suberoylanilide hydroxamic acid (SAHA) or 5-aza-2′-deoxycytidine (5azaD) as single agents or in combination was tested in vitro. The results of fluorescence-activated cell sorting experiments performed on cord blood-derived CD34^+/CD90^+ cells treated with CMA agents is shown in FIG. 1A.

[2] = tested on: cobblestone area-forming cells (CAFC); experiment: Cobblestone area-forming cell (CAFC) assay, limiting dilution on M2-10B4 stromal cells; settings: limiting dilution; mean ± SEM of three independent experiments
Method: (§1) Colony-forming cell (CFC) were assayed by plating 5×10^2 cells per dish in semisolid media and were counted after 14 days as described (Araki et al., 2009, Id.). The number of cobble stone area-forming cell (CAFC) was quantitated in primary and expanded CD34+ cells by plating in limiting dilution onto irradiated M2-10B4 stromal cells as described (Araki et al., 2009, Id.; Conneally et al., 1997, Proc. Natl. Acad. Sci. USA. 94: 9836-9841; Taswell, 1981, J. Immunol. 126: 1614-1619).
(§2) In order to determine the a correlation between expansion of CD34^+CD90^+ cells and their functional potential as pluripotent hematopoietic stem cells, in vitro functional assays were performed, including assessment of colony-forming cells (CFC), a short-term assay, and cobblestone-area forming cells (CAFC), a long-term assay.

[3] = tested on: colony-forming cells (CFC); experiment: Colony-forming cell (CFC) assay of CMA expanded CB cells; settings: mean ± SEM of three independent experiments
Method: as §1, §2

## Nc1ncn([C@H]2C[C@H](O)[C@@H](CO)O2)c(=O)n1 [5azaD, 5-aza-2′-deoxycytidine]
[1]
  cells co-expressing CD34+ and CD90+: 2%
  fold expansion of CD34+CD90+ cells: 1.2±0.5 fold
  CD34+CD90+ (%): 2.33 ± 0.60%
[2]
  CAFC Frequency/10^4 cells: 21.73 ± 14.57 /10^4 cells
[3]
  CFC PE (%) (Colony Forming Cell Plating Efficiency): 8.70 ± 1.37%

## O=C(O)c1cccnc1 [NA, nicotinic acid]
[1]
  cells co-expressing CD34+ and CD90+: 6%
  fold expansion of CD34+CD90+ cells: 2.1 fold
  expansion of CD34+CD90+ cells (in words): did not promote the expansion

## O=C(CCCCCCC(=O)Nc1ccccc1)NO [SAHA, suberoylanilide hydroxamic acid]
[1]
  cells co-expressing CD34+ and CD90+: 3%
  fold expansion of CD34+CD90+ cells: 1.2 fold
  expansion of CD34+CD90+ cells (in words): did not promote the expansion

## CC(/C=C/C(=O)NO)=C\[C@@H](C)C(=O)c1ccc(N(C)C)cc1 [TSA, trichostatin A]
[1]
  cells co-expressing CD34+ and CD90+: 5%
  fold expansion of CD34+CD90+ cells: 7.8±3.5 fold
  CD34+CD90+ (%): 5.60 ± 0.29^¤ %
[2]
  CAFC Frequency/10^4 cells: 6.39 ± 4.81 /10^4 cells
[3]
  CFC PE (%) (Colony Forming Cell Plating Efficiency): 4.97 ± 0.39%
